The text below walks through data of US20080051453A1, “Sorbic acid analog co-crystals” (priority 2006, published 2008).

This series in a line: Pharmacokinetic parameters in male cynomolgus monkeys after nasogastric gavage (suspension) or oral (tablet) administration. The following applies: for mean AUC relative to the suspension formulation / mean Cmax relative to the suspension formulation: oral, male cynomolgus monkeys, N=4/group. Format: in vivo. An excerpt:
Pharmacokinetic Parameters and Summary Statistics for Male Cynomolgus Monkeys Following Nasogastric Gavage (2% Pluronic F108 in OraPlus Suspension) or Oral (Tablet Formulations) Administration (N=4/group)

The mark [1] stands for this setting: "in situ" sorbic acid cocrystal/physical blend tablet (first mention, % CV~50-60).
The mark [2] stands for this setting: tablet printed again as "in situ" sorbic acid cocrystal/physical blend tablet (second mention, % CV~30-45).

Regarding `CC(=O)Nc1nc2c(Oc3cc(-c4ccc(C(F)(F)F)cc4)ncn3)cccc2s1` [Example 4, N-(4-(6-(4-(trifluoromethyl)phenyl)pyrimidin-4-yloxy)benzo[d]thiazol-2-yl)acetamide freebase], under “cynomolgus monkey, in vivo, po”, the “mean AUC relative to the suspension formulation of Example 4” value is 17-19% and the “mean Cmax relative to the suspension formulation of Example 4” value is 17-19%.
“N-(4-(6-(4-(trifluoromethyl)phenyl)pyrimidin-4-yloxy)benzo[d]thiazol-2-yl)acetamide sorbic acid co-crystal [Example 5]”: under setting [1], the “mean AUC relative to the suspension formulation” value is on record as 52-63% and the “mean Cmax relative to the suspension formulation” value was 52-63%. In addition, under setting [2], the “mean AUC relative to the suspension formulation” value was “approximately 65%” and the “mean Cmax relative to the suspension formulation” value is on record as “approximately 65%”.
